# Experimental data taken from patent publication US20220273799A1, “DRUG DELIVERY COMPOSITION, METHOD FORMING THE SAME AND METHOD FOR TREATING INNER EAR DISORDERS” (National Taiwan University of Science and Technology, priority 2021, published 2022).
# Assay: DEX concentration in cochlear perilymph after intratympanic injection
# Assay type: in vivo, guinea pig
# Experimental: (1) Preparation of guinea pig models: The guinea pig model used in this example is the pigmented guinea pig model. The surgical anesthesia is given by intramuscular injection of ketamine HCl (40 mg per kg guinea pig body weight). The remaining injections are muscle relaxant Rompun® (Xylazine)(10 mg/kg guinea pig body weight), prophylactic antibiotic chloramphenicol sodium succinate (30 mg/kg guinea pig body weight), and local anesthetic Lidocaine HCl (1%, 0.5 mL).
# (2) Preparation for the Guinea pig surgery and the experiment: The surgery is carried out by intratympanic injection. The guinea pig is anesthetized and operated under a dissecting surgical microscope after confirmation. A 22G needle is used to puncture the eardrum, and 200 μL of the temperature-sensitive microbubbles drug (DEX) hydrogel of the present disclosure is applied into the middle ear cavity. The experiments are performed in the ultrasound microbubble treatment group (USM), round window soaking group (RWS), and the group treated with DEX only without MBs (DEX only without MBs). The groups are as follows: USM group is injected with the temperature-sensitive microbubbles drug hydrogel at 3W energy for 1 minute. […] The concentrations of DEX are measured in the cochlear perilymph of guinea pigs on day 1 and day 7 after injection.
smiles,measurement,setting,value
"C[C@@H]1C[C@H]2[C@@H]3CCC4=CC(=O)C=C[C@]4(C)[C@@]3(F)[C@@H](O)C[C@]2(C)[C@@]1(O)C(=O)CO [DEX only without MBs, dexamethasone]",DEX concentration in cochlear perilymph,"day 1 after injection, DEX only without MBs group",about 17.38±2.51 μg/mL
same,DEX concentration in cochlear perilymph,"day 7 after injection, DEX only group",< 3 ng/mL
